Measured values published in US9562053B2, “Benzo-fused heterocyclic derivatives useful as agonists of GPR120” (Janssen Pharmaceutica NV, priority 2013, dated 2017).

Target: T1, long form of human GPR120 (Homo sapiens, UniProt Q5NUL3)
T1 construct: host or cells: PathHunter CHO-K1 GPR120 β-Arrestin Cell Line
T1 sequence (Q5NUL3 1-377 isoform Q5NUL3-1): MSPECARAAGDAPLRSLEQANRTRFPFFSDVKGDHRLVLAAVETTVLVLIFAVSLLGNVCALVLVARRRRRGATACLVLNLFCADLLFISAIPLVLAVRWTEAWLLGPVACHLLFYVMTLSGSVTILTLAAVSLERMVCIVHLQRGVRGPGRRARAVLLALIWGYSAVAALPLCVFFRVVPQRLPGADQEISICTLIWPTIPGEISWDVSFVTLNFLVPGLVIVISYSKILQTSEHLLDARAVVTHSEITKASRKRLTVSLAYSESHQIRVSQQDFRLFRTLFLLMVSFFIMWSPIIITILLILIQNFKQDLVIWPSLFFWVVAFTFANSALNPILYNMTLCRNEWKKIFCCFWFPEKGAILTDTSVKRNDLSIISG
Assay: Human GPR120 DiscoveRx PathHunter Beta-Arrestin Assay, Procedure β-arrestin A (3000 cells per well)
Format: cell-based
Details: read-out: GPR120 B-arrestin A EC50
How it was run: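 PathHunter CHO-K1 cells with long-form receptor, 3000/well, seeded overnight at 37 °C; equilibrated 60 min at 37 °C in HBSS/20 mM HEPES/0.1% BSA, pH 7.4. Compound serial dilutions (25–0.012 μM) added for 90 min at 37 °C, detection 60 min at room temperature, luminescence read; EC50 from % of positive control, Hill slope fixed at 1.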

| EC50 | SMILES |
| --- | --- |
| 851 nM | Cc1cc2cc3c(c(COc4ccc(CCC(=O)O)c(C)c4C)c2o1)OCO3 [Compound 82, 3-{2,3-Dimethyl-4-[(6-methylfuro[2,3-f][1,3]benzodioxol-4-yl)methoxy]phenyl}propanoic acid] |
| 45 nM | Cc1cc2c(F)c(OC(F)(F)F)c(F)c(COc3ccc(CCC(=O)O)c(C)c3C)c2o1 [Compound 71, 3-(4-{[4,6-Difluoro-2-methyl-5-(trifluoromethoxy)-1-benzofuran-7-yl]methoxy}-2,3-dimethylphenyl)propanoic acid] |
| 374 nM | CCc1cc2cc(OC(F)(F)F)cc(COc3ccc(CCC(=O)O)c4c3CCC4)c2o1 [Compound 52, 3-(7-{[2-Ethyl-5-(trifluoromethoxy)-1-benzofuran-7-yl]methoxy}-2,3-dihydro-1H-inden-4-yl)propanoic acid] |
| 108 nM | Cc1c(CCC(=O)O)ccc(OCc2cc(Cl)cc3cnn(C)c23)c1C [Compound 7, 3-{4-[(5-Chloro-1-methyl-1H-indazol-7-yl)methoxy]-2,3-dimethylphenyl}propanoic acid] |
| 107 nM | CCc1cc2cc(Cl)c(C)c(COc3ccc(CCC(=O)O)c(C)c3C)c2o1 [Compound 40, 3-{4-[(5-Chloro-2-ethyl-6-methyl-1-benzofuran-7-yl)methoxy]-2,3-dimethylphenyl}propanoic acid] |
| 460 nM | Cc1cc2cc(Cl)c(C)c(COc3c(F)cc(CCC(=O)O)cc3F)c2o1 [Compound 86, 3-{4-[(5-Chloro-2,6-dimethyl-1-benzofuran-7-yl)methoxy]-3,5-difluorophenyl}propanoic acid] |
| 536 nM | Cc1cc2cc(Cl)cc(COc3c(F)cc(CCCO)cc3F)c2s1 [Compound 93, 3-{4-[(5-Chloro-2-methyl-1-benzothiophen-7-yl)methoxy]-3,5-difluorophenyl}propan-1-ol] |
| 190 nM | CCCc1cc2cc(OC(F)(F)F)cc(COc3ccc(CCC(=O)O)c(C)c3C)c2o1 [Compound 35, 3-(2,3-Dimethyl-4-{[2-propyl-5-(trifluoromethoxy)-1-benzofuran-7-yl]methoxy}phenyl)propanoic acid] |
| 231 nM | CCc1cc2cc(Cl)c(OCCOC)c(COc3ccc(CCC(=O)O)c(C)c3C)c2o1 [Compound 63, 3-(4-{[5-Chloro-2-ethyl-6-(2-methoxyethoxy)-1-benzofuran-7-yl]methoxy}-2,3-dimethylphenyl)propanoic acid] |
| 455 nM | CCc1cc2cc(F)cc(COc3c(F)cc(CCC(=O)O)cc3F)c2o1 [Compound 17, 3-{4-[(2-Ethyl-5-fluoro-1-benzofuran-7-yl)methoxy]-3,5-difluorophenyl}propanoic acid] |
| 949 nM | Cc1oc2c(COc3ccc(CCC(=O)O)c(C)c3C)cc(F)cc2c1F [Compound 5, 3-{4-[(3,5-Difluoro-2-methyl-1-benzofuran-7-yl)methoxy]-2,3-dimethylphenyl}propanoic acid] |
| 121 nM | Cc1cc2cc(Cl)cc(COc3ccc(CCC(=O)O)c(C)c3C)c2o1 [Compound 78, 3-{4-[(5-Chloro-2-methyl-1-benzofuran-7-yl)methoxy]-2,3-dimethylphenyl}propanoic acid] |
| 394 nM | Cc1cc2c(F)c(OC(F)(F)F)c(F)c(COc3ccc(CCC(=O)O)c(F)c3F)c2o1 [Compound 75, 3-(4-{[4,6-Difluoro-2-methyl-5-(trifluoromethoxy)-1-benzofuran-7-yl]methoxy}-2,3-difluorophenyl)propanoic acid] |
| 629 nM | Cc1cc2cc(Cl)cc(COc3ccc(CCC(=O)O)c(C)c3C)c2s1 [Compound 91, 3-{4-[(5-Chloro-2-methyl-1-benzothiophen-7-yl)methoxy]-2,3-dimethylphenyl}propanoic acid] |
| 797 nM | Cc1c(CCC(=O)O)ccc(OCc2cc(F)cc3cc(C(C)C)oc23)c1C [Compound 22, 3-(4-{[5-Fluoro-2-(1-methylethyl)-1-benzofuran-7-yl]methoxy}-2,3-dimethylphenyl)propanoic acid] |
| 240 nM | CCc1cc2cc(Cl)c(OC(C)C)c(COc3ccc(CCC(=O)O)c(C)c3C)c2o1 [Compound 65, 3-(4-{[5-Chloro-2-ethyl-6-(1-methylethoxy)-1-benzofuran-7-yl]methoxy}-2,3-dimethylphenyl)propanoic acid] |

| EC50 | SMILES |
| --- | --- |
| 410 nM | CC#Cc1cc(COc2ccc(CCC(=O)O)c(C)c2C)c2oc(CCC)cc2c1 [Compound 58, 3-{2,3-Dimethyl-4-[(2-propyl-5-prop-1-yn-1-yl-1-benzofuran-7-yl)methoxy]phenyl}propanoic acid] |
| 221 nM | CCc1cc2cc(Cl)c(OCC(C)C)c(COc3ccc(CCC(=O)O)c(C)c3C)c2o1 [Compound 67, 3-(4-{[5-Chloro-2-ethyl-6-(2-methylpropoxy)-1-benzofuran-7-yl]methoxy}-2,3-dimethylphenyl)propanoic acid] |
| 374 nM | Cc1cc2cc(F)cc(COc3ccc(CCC(=O)O)c(C)c3C)c2o1 [Compound 2, 3-{4-[(5-Fluoro-2-methyl-1-benzofuran-7-yl)methoxy]-2,3-dimethylphenyl}propanoic acid] |
| 274 nM | CCOc1c(Cl)cc2cc(CC)oc2c1COc1ccc(CCC(=O)O)c(C)c1C [Compound 62, 3-{4-[(5-Chloro-6-ethoxy-2-ethyl-1-benzofuran-7-yl)methoxy]-2,3-dimethylphenyl}propanoic acid] |
| 154 nM | Cc1nc2c(COc3ccc(CCC(=O)O)c(C)c3C)cc(Cl)cc2s1 [Compound 98, 3-{4-[(6-Chloro-2-methyl-1,3-benzothiazol-4-yl)methoxy]-2,3-dimethylphenyl}propanoic acid] |
| 496 nM | CCCc1cc(OCc2cc(OC(F)(F)F)cc3cc(CC)oc23)c(F)cc1CCC(=O)O [Compound 50, 3-(4-{[2-Ethyl-5-(trifluoromethoxy)-1-benzofuran-7-yl]methoxy}-5-fluoro-2-propylphenyl)propanoic acid] |
| 190 nM | CCc1cc2cc(Cl)c(CC)c(COc3ccc(CCC(=O)O)c(C)c3C)c2o1 [Compound 61, 3-{4-[(5-Chloro-2,6-diethyl-1-benzofuran-7-yl)methoxy]-2,3-dimethylphenyl}propanoic acid] |
| 271 nM | CCc1cc2cc(Cl)c(OCC(F)(F)F)c(COc3ccc(CCC(=O)O)c(C)c3C)c2o1 [Compound 64, 3-(4-{[5-Chloro-2-ethyl-6-(2,2,2-trifluoroethoxy)-1-benzofuran-7-yl]methoxy}-2,3-dimethylphenyl)propanoic acid] |
| 271 nM | CCCc1cc2cc(C(F)(F)F)cc(COc3ccc(CCC(=O)O)c(C)c3C)c2o1 [Compound 37, 3-(2,3-Dimethyl-4-{[2-propyl-5-(trifluoromethyl)-1-benzofuran-7-yl]methoxy}phenyl)propanoic acid] |
| 1410 nM | CCOc1ccc2cc(CC)oc2c1COc1ccc(CCC(=O)O)c(C)c1C [Compound 66, 3-{4-[(6-Ethoxy-2-ethyl-1-benzofuran-7-yl)methoxy]-2,3-dimethylphenyl}propanoic acid] |
| 119 nM | Cc1cc2cc3c(c(COc4ccc(CCC(=O)O)c(C)c4C)c2o1)OC(F)(F)O3 [Compound 89, 3-{4-[(2,2-Difluoro-6-methylfuro[2,3-f][1,3]benzodioxol-4-yl)methoxy]-2,3-dimethylphenyl}propanoic acid] |
| 77 nM | CCc1cc2cc(OC(F)F)cc(COc3ccc(CCC(=O)O)c(C)c3C)c2o1 [Compound 57, 3-(4-{[5-(Difluoromethoxy)-2-ethyl-1-benzofuran-7-yl]methoxy}-2,3-dimethylphenyl)propanoic acid] |
| 613 nM | Cc1c(CCC(=O)O)ccc(OCc2cc(Cl)cc3cn(C)nc23)c1C [Compound 8, 3-{4-[(5-Chloro-2-methyl-2H-indazol-7-yl)methoxy]-2,3-dimethylphenyl}propanoic acid] |
| 409 nM | Cc1c(CCC(=O)O)ccc(OCc2cc(Cl)cc3cc(CC(F)F)oc23)c1C [Compound 87, 3-(4-{[5-Chloro-2-(2,2-difluoroethyl)-1-benzofuran-7-yl]methoxy}-2,3-dimethylphenyl)propanoic acid] |
| 238 nM | Cc1cc2cc(Cl)c(C)c(COc3ccc(CCC(=O)O)c(C)c3C)c2o1 [Compound 85, 3-{4-[(5-Chloro-2,6-dimethyl-1-benzofuran-7-yl)methoxy]-2,3-dimethylphenyl}propanoic acid] |
